One data set can be described thus: LLNA sensitization test. The following applies: cytotoxicity can also be detected. The format is in vivo. Here is the method: (§1) The tests carried out to measure the toxicity of the initiators are the Ames test and the LLNA sensitization test. The Ames test makes it possible to measure the mutagenic power of the initiator and the LLNA sensitization test makes it possible to detect the sensitizing power of the initiator. The cytotoxicity of the initiators can also be detected in this latter test (see examples).
The following toxicology tests were carried out:
LLNA sensitization test: this test makes it possible to detect the sensitizing power of the product. The cytotoxicity of the products can also be detected in the course of the test.
Table I below indicates the results obtained for the various photoinitiators prepared above.

Data set [1] is described as follows: Ames test (mutagenic power). The format is cell-based. How it is done: as §1, with “examples). The following toxicology tests were carried out: Ames test: this Ames test makes it possible to measure the mutagenic power of the product Table I below indicates the results obtained for the various photoinitiators prepared above.” for “examples).”
For orientation: The Ames test detects mutagens through reverse mutation in bacteria.

Data set [2] is described as follows: Reactivity under UV irradiation of the photoinitiator. The following applies: compared with the other toxic photo-initiators. An excerpt: The crosslinkable compositions comprise the non-toxic initiator prepared in Example 4.

SMILES strings stand for the structures.

In the case of `Cc1ccc([I+]c2ccc(C)cc2)cc1` [Example 1, ditolyliodonium chloride], the LLNA sensit. entry in “LLNA sensitization test” is listed as “cytotoxic”. For the same compound, the Ames result in data set [1] was “cytotoxic”.

With `Cc1ccc([I+]c2ccc(C)cc2)cc1` [Example 2], the LLNA sensit. entry in the data set “LLNA sensitization test” is on record as “positive”. Besides, the Ames entry in data set [1] was “positive”. Take `Cc1ccc([I+]c2ccc(C(C)C)cc2)cc1` [Example 3, cumyltolyliodonium chloride]: in the data set “LLNA sensitization test”, the LLNA sensit. entry was “negative”. The Ames result in data set [1] is reported as “negative”. On to `Cc1ccc([I+]c2ccc(C(C)C)cc2)cc1` [Example 4], for which the “reactivity under UV irradiation” value in data set [2] was “comparable”. In the case of `CCOc1ccc([I+]c2ccc(C)cc2)cc1` [Example 8], the LLNA sensit. entry in the data set “LLNA sensitization test” is reported as “positive”. For the same compound, the Ames result in data set [1] was “positive and cytotoxic”.

For the compound `Cc1ccc([I+]c2ccc(Oc3ccccc3)cc2)cc1` [Example 9], in “LLNA sensitization test”, the LLNA sensit. result is reported as “negative”. For the same compound, in data set [1], the Ames entry is listed as “cytotoxic”. For `CC(C)c1ccc([I+]c2ccc(C(C)C)cc2)cc1` [Example 10], the LLNA sensit. result in the data set “LLNA sensitization test” was “positive”. In data set [1], the Ames result was “negative”. Turning to `COc1ccc([I+]c2ccc(OC)cc2)cc1` [Example 11], in the data set “LLNA sensitization test”, the LLNA sensit. result is recorded as “cytotoxic”. In addition, in data set [1], the Ames entry is listed as “cytotoxic”.

The values are drawn from patent publication US6291540A, “Non-toxic initiators and their use for preparing stable and non-toxic polymers” (Rhodia Chimie, priority 1997, dated 2001).
